From ChEMBL document CHEMBL5465560, “Selectivity Literature for EUbOPEN Chemogenomic Library” (2024)
Values belong to the molecule of their own block, whether it stands above or below them.

Columns and labels:
[1] = target: T1, Rhodopsin kinase GRK7 (Homo sapiens) (UniProt Q8WTQ7); assay: Selectivity interaction (KinomeScan (DiscoverX)) EUB0001049a GRK7; settings: at 1 µM
T1 sequence (whole entry): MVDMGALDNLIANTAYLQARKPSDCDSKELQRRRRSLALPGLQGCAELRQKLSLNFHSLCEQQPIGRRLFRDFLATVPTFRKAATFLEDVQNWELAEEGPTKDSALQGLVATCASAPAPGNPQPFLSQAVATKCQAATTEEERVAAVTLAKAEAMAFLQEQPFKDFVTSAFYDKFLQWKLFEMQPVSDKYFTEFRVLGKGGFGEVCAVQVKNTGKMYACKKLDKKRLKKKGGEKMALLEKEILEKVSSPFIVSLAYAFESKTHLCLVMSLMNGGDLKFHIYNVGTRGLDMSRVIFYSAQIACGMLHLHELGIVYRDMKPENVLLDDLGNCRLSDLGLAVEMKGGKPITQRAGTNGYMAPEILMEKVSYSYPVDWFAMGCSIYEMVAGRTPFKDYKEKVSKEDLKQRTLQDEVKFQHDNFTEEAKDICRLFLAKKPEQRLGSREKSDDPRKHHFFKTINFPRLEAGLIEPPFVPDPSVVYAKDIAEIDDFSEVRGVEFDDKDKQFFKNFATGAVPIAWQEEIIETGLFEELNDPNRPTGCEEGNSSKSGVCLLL

[2] = target: T2, Serine/threonine-protein kinase Nek11 (Homo sapiens) (UniProt Q8NG66); assay: Selectivity interaction (Ambit KINOMEscan and KiNATiv profiling in Jurkat cells) EUB0000090b NEK11; assay type: cell-based; settings: at 1 µM
T2 sequence (whole entry): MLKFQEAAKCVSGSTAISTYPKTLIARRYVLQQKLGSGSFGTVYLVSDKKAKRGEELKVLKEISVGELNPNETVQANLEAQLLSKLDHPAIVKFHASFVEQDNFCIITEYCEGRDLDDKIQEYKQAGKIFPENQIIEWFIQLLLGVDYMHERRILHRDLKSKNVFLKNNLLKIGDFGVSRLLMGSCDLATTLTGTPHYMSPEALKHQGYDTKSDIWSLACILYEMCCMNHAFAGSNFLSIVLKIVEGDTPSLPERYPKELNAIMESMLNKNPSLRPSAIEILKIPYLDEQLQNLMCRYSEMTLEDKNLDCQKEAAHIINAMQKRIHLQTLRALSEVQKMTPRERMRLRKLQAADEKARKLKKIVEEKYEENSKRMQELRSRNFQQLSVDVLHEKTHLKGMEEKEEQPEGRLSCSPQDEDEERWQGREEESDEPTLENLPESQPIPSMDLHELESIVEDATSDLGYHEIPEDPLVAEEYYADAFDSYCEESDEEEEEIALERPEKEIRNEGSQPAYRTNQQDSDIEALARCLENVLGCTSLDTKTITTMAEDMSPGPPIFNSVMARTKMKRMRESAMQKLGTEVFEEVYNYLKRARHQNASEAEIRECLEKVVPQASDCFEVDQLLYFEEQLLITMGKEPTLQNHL

[3] = target: Fibroblast growth factor receptor 1 (Homo sapiens, UniProt P11362); assay: Selectivity interaction (KinomeScan (DiscoverX)) EUB0000229b FGFR1; settings: at 10 µM
Misshapen-like kinase 1 = Misshapen-like kinase 1 (Homo sapiens, UniProt Q8N4C8); assay: Selectivity interaction (ProQinase) EUB0000171b MINK1
[4] = target: T3, Tyrosine-protein kinase ITK/TSK (Homo sapiens) (UniProt Q08881); assay: Selectivity interaction (KinomeScan (DiscoverX)) EUB0000092b ITK; settings: at 10 µM
T3 sequence (whole entry): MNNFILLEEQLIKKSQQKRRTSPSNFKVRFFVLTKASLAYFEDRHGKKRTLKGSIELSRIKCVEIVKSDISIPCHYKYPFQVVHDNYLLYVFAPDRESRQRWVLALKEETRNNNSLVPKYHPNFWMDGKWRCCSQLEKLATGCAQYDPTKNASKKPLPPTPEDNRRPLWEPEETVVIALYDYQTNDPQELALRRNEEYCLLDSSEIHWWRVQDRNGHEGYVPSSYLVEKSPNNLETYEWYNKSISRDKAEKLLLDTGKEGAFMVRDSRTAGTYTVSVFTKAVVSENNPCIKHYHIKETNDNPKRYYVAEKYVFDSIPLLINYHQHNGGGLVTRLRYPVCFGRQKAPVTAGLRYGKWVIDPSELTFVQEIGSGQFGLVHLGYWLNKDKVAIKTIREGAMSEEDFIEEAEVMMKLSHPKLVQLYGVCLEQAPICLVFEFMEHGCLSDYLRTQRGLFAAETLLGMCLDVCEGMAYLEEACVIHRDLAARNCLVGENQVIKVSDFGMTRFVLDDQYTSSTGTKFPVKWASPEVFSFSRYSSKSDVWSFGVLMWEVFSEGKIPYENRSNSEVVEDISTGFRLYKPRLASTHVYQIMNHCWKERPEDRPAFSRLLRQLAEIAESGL

[5] = target: Serine/threonine-protein kinase PAK 3 (Homo sapiens) (UniProt O75914); assay: Selectivity interaction (Upstate Kinase Profiler service (Millipore)) EUB0000056c PAK3; settings: at 1 µM
[6] = target: Serine/threonine-protein kinase PAK 3 (Homo sapiens) (UniProt O75914); assay: Selectivity interaction (KinomeScan (DiscoverX)) EUB0000045b PAK3
[7] = target: Cyclin-dependent kinase 3 (Homo sapiens) (UniProt Q00526); assay: Selectivity interaction (KinomeScan (DiscoverX)) EUB0001619a CDK3; settings: at 1 µM
[8] = target: T4, Dual specificity mitogen-activated protein kinase kinase 7 (Homo sapiens) (UniProt O14733); assay: Selectivity interaction (Kinase panel (KiNativ target engagement assay in Jurkat cells)) EUB0001635a MAP2K7; assay type: cell-based; settings: Selectivity number of off-targets 0.0, Selectivity number of targets 233.0, Source Knowledge https://www.sciencedirect.com/science/article/pii/S2451945619300674?via%3Dihub, at 1 µM
T4 sequence (whole entry): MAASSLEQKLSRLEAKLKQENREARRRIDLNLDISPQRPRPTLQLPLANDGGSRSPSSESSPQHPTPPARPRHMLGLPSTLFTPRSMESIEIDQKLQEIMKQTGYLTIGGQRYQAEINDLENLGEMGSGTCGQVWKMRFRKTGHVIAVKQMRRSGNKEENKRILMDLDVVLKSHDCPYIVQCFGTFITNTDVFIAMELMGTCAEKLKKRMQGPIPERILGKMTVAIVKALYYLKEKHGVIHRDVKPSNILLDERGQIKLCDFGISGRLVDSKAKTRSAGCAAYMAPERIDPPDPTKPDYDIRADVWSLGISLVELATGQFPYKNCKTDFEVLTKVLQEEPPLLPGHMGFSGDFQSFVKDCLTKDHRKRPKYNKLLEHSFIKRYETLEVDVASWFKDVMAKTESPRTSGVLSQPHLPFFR

Sequence of Serine/threonine-protein kinase PAK 3 (Homo sapiens) (O75914 whole entry, looked up): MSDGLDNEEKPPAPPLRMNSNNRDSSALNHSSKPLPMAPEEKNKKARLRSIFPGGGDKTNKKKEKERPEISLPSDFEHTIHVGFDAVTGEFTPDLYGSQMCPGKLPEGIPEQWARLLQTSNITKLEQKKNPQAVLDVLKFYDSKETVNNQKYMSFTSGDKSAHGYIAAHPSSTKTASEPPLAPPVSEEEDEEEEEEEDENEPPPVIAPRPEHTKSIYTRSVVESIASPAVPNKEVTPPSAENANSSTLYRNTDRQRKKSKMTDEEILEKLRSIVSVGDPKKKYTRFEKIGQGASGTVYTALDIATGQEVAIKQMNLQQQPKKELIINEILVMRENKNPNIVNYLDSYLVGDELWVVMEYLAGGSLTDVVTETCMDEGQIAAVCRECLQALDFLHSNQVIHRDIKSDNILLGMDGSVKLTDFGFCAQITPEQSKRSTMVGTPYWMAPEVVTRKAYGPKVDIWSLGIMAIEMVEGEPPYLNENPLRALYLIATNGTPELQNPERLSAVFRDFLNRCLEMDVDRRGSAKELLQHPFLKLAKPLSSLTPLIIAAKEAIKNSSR
Sequence of Misshapen-like kinase 1 (Q8N4C8 whole entry, looked up): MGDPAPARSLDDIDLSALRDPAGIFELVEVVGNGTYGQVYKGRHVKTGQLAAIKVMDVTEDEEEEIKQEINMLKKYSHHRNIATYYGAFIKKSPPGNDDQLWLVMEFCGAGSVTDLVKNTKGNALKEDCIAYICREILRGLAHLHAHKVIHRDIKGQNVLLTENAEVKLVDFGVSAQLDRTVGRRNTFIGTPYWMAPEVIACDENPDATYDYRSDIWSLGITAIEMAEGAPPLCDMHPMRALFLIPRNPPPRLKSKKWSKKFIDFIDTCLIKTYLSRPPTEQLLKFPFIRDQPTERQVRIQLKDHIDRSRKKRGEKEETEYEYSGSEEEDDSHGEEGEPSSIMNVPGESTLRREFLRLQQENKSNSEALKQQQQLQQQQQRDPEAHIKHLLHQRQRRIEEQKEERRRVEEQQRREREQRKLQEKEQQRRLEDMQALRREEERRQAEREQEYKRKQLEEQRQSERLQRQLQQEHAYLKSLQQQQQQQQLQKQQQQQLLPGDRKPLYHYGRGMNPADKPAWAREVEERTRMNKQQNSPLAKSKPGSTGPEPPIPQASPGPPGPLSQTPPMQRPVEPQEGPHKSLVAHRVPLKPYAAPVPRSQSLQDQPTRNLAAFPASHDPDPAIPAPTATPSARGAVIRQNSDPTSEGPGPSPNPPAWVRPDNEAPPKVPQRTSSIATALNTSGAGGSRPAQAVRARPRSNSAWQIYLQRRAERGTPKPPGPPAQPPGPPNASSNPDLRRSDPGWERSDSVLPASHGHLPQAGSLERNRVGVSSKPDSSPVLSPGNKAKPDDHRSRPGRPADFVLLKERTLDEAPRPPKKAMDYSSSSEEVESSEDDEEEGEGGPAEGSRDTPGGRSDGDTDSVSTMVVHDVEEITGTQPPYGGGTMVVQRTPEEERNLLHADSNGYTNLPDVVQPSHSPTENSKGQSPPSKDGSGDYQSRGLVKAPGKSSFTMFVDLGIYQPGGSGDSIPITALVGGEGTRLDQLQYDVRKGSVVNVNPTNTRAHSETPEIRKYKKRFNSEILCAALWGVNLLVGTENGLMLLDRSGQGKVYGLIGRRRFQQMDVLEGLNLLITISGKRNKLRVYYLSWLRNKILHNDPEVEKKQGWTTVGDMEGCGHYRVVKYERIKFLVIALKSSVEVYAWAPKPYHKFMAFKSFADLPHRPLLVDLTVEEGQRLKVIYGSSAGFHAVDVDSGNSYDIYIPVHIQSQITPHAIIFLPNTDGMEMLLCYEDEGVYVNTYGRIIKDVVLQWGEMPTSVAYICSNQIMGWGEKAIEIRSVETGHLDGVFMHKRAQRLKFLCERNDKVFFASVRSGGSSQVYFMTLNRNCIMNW
Sequence of Fibroblast growth factor receptor 1 (P11362 22-822 limits assumed): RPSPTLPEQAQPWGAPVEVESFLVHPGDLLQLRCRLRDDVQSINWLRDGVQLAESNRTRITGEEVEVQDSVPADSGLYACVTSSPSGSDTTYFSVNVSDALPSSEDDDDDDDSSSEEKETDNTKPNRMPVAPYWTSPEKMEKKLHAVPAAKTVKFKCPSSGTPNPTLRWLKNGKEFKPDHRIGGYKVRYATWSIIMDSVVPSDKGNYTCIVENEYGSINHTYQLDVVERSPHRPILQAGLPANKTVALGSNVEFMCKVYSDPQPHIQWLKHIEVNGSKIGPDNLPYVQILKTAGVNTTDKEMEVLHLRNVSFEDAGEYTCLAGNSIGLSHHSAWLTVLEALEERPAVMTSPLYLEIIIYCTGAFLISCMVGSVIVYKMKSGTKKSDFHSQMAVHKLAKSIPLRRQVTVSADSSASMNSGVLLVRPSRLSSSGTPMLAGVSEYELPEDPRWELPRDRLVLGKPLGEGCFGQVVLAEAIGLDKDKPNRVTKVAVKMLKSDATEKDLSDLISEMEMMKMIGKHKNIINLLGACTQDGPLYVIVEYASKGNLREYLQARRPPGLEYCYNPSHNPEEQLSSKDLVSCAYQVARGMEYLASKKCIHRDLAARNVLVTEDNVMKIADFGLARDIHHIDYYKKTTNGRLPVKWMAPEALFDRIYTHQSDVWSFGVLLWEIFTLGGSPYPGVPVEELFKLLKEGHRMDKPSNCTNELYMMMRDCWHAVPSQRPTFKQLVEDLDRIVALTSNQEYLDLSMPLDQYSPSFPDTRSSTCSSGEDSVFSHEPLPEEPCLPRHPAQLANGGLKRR
Sequence of Cyclin-dependent kinase 3 (Homo sapiens) (Q00526 whole entry, looked up): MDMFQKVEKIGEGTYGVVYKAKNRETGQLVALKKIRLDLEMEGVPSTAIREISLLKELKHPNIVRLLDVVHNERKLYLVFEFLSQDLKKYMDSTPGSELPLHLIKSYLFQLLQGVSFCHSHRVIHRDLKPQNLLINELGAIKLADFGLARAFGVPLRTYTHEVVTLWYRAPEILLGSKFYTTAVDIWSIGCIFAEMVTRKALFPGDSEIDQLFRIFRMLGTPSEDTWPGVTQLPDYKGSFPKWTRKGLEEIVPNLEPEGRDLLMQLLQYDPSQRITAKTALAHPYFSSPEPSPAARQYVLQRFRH

SMILES: COc1cc(Nc2nc(C)cc(-c3cnn4nc(OC)ccc34)n2)cc(C(F)(F)F)c1
% of control [1]: 83%

SMILES: CN(C)C/C=C/C(=O)Nc1ccc(C(=O)N2CCCC(Nc3ncc(Cl)c(-c4c[nH]c5ccccc45)n3)C2)cc1 (stereo unspecified)
% of control [2]: 90%

SMILES: COc1cc(N(C)c2ccnc3ccc(C(F)(F)F)cc23)cc(OC)c1OC
% binding [3]: 99%

% of control (Misshapen-like kinase 1; at 1 µM): 75%
% of control (Misshapen-like kinase 1; at 5 µM): 44%
SMILES: C=CC(=O)Nc1cccc(C(=O)Nc2ccc(Nc3cc(-c4[nH]c(SC)nc4C)ccn3)cc2)c1

SMILES: CCC(=O)N1CCN(c2ccc(-n3c(=O)ccc4cnc5ccc(-c6cnc7ccccc7c6)cc5c43)cc2C(F)(F)F)CC1
% of control [4]: 100%

% of inhibition [5]: 37%
SMILES: Cc1ccc(-c2ccc3c(ccc4sc5c(c43)NC[C@@H](C)NC5=O)n2)cn1

SMILES: C=CC(=O)Nc1cc(-n2c(=O)ccc3cnc4ccc(-c5ccc(NS(C)(=O)=O)cc5)cc4c32)ccc1C
% of control ([6]; at 1 µM): 92%
% of control ([6]; at 10 µM): 100%

SMILES: N#Cc1cccc(-c2c[nH]c3ncnc(N4CCOCC4)c23)c1
% of control [7]: 93%

SMILES: C=CC(=O)Nc1ccc(C(=O)Nc2[nH]nc3c2CN(C(=O)N[C@H](CN(C)C)c2ccccc2)C3(C)C)cc1
% of engagement [8]: 22.4%
